Laboratory results as given in patent US8067583B2, “Method for synthesizing furanosteroids” (Trustees of Dartmouth College, priority 2006, dated 2011).

Assays:
[1] = storage stability of isolated isomers; assay type: physicochemical
Method: A solution of 50.0 mg (0.136 mmol, 1.0 eq) of aldehyde 18 in 13.6 mL of dry CH2Cl2 was stirred in a 25 mL round bottom flask at room temperature under argon. To this solution was slowly added 271 μL (1.0 M in CH2Cl2, 0.271 mmol, 2.0 eq) of TiCl4. […] The solution was then diluted with CH2Cl2 and washed with H2O. The aqueous portion was then extracted three times with CH2Cl2. The combined organic fractions were then dried over MgSO4 and concentrated. Purification via silica gel chromatography (hexane/EtOAc) gave 20.4 mg (59%) of the syn-isomer 19-Syn and 5.4 mg (16%) of the anti-isomer 19-Anti as unstable brown oils. […] The decomposition was of a general nature and none of the stable, known retro-aldol product was observed.

PI3-kinase = conditions: read-out: IC50, inhibitor of PI3-kinase; cited from earlier work
PI3K-Beta = PI3K-Beta (Homo sapiens, UniProt P42338); assay: activity against PI3K-Beta; assay type: biochemical
Excerpt: Novel furanosteroids produced according to the present method can be screened for biological activity using any conventional method. For example, PI3 kinase assays are disclosed by Yuan, et al. ((2005) Bioconjugate Chem, 16 (3): 669-675) and Fruman, et al. ((1999) Science 283:393-7). Assays for monitoring the assembly of peptide-MHC class II complexes (Song, et al. (1997) International Immunology 9:1709-1722) and mast cell exocytosis (Marquardt, et al. (1996) J. Immunol. 156:1942-1945) are known in the art as are assays for monitoring cell proliferation.

[2] = target: mammalian Polo-like kinase (Homo sapiens, UniProt P53350); conditions: cited from earlier work
Chain of mammalian Polo-like kinase (P53350 whole entry): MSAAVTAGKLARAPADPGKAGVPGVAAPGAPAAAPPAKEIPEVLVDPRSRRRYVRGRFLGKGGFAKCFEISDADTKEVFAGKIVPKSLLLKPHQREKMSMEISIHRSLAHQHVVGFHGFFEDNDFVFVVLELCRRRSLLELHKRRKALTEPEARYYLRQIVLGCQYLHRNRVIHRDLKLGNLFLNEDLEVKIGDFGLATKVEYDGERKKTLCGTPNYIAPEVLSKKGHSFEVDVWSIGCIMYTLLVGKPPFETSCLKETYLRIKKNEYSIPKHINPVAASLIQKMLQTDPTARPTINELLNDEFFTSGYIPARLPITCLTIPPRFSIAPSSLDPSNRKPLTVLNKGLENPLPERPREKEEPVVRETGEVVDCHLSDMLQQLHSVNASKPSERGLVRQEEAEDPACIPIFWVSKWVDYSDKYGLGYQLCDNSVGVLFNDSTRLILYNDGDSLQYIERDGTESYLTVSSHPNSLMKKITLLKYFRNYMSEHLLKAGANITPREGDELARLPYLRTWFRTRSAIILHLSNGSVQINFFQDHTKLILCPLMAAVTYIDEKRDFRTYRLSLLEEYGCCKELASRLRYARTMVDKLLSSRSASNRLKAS

Chain of PI3K-Beta (P42338 whole entry, species assumed): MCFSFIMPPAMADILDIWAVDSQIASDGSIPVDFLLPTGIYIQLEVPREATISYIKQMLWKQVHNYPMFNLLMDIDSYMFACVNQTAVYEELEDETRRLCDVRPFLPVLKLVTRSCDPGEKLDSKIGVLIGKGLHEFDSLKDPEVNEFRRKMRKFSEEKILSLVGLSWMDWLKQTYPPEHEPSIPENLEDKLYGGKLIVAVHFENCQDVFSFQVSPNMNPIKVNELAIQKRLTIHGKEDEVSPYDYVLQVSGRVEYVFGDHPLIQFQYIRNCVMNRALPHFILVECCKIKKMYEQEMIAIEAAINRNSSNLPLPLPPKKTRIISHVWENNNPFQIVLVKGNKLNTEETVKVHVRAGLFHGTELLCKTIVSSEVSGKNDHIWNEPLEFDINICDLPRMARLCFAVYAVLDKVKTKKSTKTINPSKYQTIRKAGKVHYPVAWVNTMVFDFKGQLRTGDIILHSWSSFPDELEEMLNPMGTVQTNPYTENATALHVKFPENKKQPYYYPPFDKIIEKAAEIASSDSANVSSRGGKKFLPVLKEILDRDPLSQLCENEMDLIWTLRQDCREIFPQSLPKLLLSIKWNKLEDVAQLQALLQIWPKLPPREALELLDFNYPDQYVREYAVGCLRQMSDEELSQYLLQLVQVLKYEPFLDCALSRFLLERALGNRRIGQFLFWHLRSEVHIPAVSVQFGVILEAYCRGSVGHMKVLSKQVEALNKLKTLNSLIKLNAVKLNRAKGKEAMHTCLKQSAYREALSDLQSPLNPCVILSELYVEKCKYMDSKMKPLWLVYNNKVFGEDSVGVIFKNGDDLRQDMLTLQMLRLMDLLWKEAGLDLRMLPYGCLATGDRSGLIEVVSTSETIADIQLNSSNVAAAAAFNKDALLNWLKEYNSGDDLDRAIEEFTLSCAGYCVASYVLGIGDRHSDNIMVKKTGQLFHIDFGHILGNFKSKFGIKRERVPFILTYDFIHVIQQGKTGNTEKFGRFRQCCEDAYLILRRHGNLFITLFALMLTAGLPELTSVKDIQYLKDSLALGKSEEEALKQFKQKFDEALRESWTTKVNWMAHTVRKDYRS
Chain of PI3K-Beta (P27986 whole entry partner, species assumed): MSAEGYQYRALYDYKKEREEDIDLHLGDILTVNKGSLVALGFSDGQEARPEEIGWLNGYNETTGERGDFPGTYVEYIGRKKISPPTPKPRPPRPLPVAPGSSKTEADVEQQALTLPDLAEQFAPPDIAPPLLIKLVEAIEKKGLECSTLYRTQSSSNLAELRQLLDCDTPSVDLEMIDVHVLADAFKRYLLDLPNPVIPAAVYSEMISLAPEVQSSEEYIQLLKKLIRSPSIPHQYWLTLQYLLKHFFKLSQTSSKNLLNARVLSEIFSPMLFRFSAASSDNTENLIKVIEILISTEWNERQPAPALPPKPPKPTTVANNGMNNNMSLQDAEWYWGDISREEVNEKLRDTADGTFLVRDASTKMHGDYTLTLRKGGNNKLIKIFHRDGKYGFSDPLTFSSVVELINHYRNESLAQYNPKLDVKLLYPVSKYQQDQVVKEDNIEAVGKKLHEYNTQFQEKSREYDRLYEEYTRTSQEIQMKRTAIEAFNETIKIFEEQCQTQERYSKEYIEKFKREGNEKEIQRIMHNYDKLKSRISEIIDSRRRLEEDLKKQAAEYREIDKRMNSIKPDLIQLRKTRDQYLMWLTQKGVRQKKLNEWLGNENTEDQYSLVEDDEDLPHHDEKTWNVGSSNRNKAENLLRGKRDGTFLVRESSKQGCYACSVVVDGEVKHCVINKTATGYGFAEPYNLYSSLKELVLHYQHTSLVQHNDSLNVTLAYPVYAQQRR

CC12c3ccccc3C(=O)c3occ(c31)CC[C@H]2O (stereo in doubt) [Compound 19-Syn, 1-Hydroxy-10b-methyl-1,2,3,10b-tetrahydro-5-oxa-acephenanthrylen-6-one]
stability in a refrigerator ([1]; refrigerator): stable in a refrigerator for several weeks | stability at room temperature ([1]; room temperature, prolonged periods, isolated brown oils): Neither isomer was stable at room temperature for prolonged periods

COC[C@H]1OC(=O)c2coc3c2[C@@]1(C)C1=C(C3=O)[C@@H]2CC[C@H](O)[C@@]2(C)C[C@H]1OC(C)=O [17β-OH wortmannin]
IC50 (PI3-kinase): 0.5 nM

C[C@]12COC(=O)c3coc(c31)C(=O)c1ccccc12 [Compound 47]
activity against PI3K-Beta (PI3K-Beta): sub-micromolar

COC[C@H]1OC(=O)c2coc3c2C1(C)C1=C(C3=O)[C@@H]2CCC(=O)C2(C)C[C@H]1OC(C)=O (some centres unmarked) [wortmannin]
inhibition of mammalian Polo-like kinase [2]: inhibit
